Columns and labels:
MMP2 = molecular target: T1, MMP2 (Homo sapiens, UniProt P08253); assay: in vitro MMP inhibition assay (Eurofins Panlabs); type: biochemical
T1 sequence (P08253 110-660): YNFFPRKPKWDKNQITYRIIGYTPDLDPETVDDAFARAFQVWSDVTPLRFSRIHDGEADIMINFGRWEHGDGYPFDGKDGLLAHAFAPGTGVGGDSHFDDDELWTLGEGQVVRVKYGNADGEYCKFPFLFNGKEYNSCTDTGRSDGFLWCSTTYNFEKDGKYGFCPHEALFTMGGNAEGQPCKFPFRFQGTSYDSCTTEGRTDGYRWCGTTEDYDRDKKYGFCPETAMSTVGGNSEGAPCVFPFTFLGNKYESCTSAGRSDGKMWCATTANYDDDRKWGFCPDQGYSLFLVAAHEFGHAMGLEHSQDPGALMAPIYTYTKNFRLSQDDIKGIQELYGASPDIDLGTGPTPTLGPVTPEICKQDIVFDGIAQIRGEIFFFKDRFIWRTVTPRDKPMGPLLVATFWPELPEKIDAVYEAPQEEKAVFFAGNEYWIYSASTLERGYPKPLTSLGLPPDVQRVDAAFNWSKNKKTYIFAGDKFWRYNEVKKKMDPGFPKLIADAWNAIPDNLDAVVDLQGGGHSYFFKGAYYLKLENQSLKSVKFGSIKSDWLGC

MMP9 = MMP9 (Homo sapiens, UniProt P14780); assay: in vitro MMP inhibition assay (Eurofins Panlabs); type: biochemical
MMP9, sequence (P14780 107-707): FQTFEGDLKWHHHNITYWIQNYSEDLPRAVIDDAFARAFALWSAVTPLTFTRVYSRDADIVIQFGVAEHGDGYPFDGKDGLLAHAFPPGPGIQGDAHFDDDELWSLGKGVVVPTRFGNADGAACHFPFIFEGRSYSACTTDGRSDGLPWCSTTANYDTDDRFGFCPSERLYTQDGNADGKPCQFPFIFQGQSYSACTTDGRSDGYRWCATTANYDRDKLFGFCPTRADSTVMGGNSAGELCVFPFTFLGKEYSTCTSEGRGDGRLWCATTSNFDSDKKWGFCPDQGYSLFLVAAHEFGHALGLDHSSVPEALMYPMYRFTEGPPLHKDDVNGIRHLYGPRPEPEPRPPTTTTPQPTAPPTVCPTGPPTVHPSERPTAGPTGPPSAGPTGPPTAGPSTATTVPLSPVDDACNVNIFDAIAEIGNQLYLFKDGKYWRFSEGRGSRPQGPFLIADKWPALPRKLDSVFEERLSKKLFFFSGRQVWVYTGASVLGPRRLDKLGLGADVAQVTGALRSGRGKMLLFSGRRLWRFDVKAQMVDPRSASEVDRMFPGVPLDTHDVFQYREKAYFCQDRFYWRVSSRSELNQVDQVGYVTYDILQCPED

`CNC(=O)C(Cc1c[nH]c2ccc(F)cc12)NC(=O)C(CC(=O)NO)CC(C)C` (mixture of isomers) [TGF-019] was tested, and the “in vitro MMP inhibition assay (Eurofins Panlabs)” value (MMP2) was “completely inhibit” and the “in vitro MMP inhibition assay (Eurofins Panlabs)” value (MMP9) was “completely inhibit”.

— publication PMC6339703, “Visualizing the Distribution of Matrix Metalloproteinases in Ischemic Brain Using In Vivo ^19F-Magnetic Resonance Spectroscopic Imaging” (Contrast Media & Molecular Imaging, 2019)
